Test results as given in patent publication US4321381A, “Ergot derivatives” (Farmitalia Carlo Erba S.p.A., priority 1978, dated 1982).

What was measured:
[1] = Acute toxicity (LD50) in mice; format: in vivo, mouse; settings: mouse, in vivo; male mice; oral; observed for seven days
Text: (§1) Evaluation of the Toxicity (LD50)
(§2) Ten male mice for each group were orally treated with drugs at different dose levels for the determination of lethal dose 50 (LD50).

[2] = system: spontaneously hypertensive male rats, strain MHS; assay: Anti-hypertensive activity in the spontaneously hypertensive rat (MHS): blood pressure and heart rate at the tail; format: in vivo
Description: 1. Spontaneously Hypertensive Rat (MHS)
Four spontaneously hypertensive male rats, strain MHS, weight 250 to 300 g for each group were used. The animals were treated for four consecutive days. The drugs were administered by gastric gavage while suspended in 5% arabic gum (0.2 ml/100 g body weight), and blood pressure (BP) and heart rate (HR) were measured at the tail by BP Recorder W+W. Blood pressure and heart rate were measured on the first and fourth day of treatment 1 hour before and 1 and 5 hours after drug administration.

normotensive rats = assay: Blood pressure and heart rate in the conscious normotensive rat (NR); format: in vivo; settings: 5 mg/kg os
Description: Blood pressure recordings have been made in conscious normotensive unrestrained rats weighing approximately 300 g, via a catheter chronically inserted into the left common carotid artery. Implantation of arterial cannula was made under sodium pentobarbital anesthesia (50 mg/kp i.p.) A 1 cm long incision was made through the previously shaved ventral surface of the neck and the tissues overlying the trachea parted by blunt dissection to reveal the carotid artery. The polyethylene catheter used was made with PE 50 tubing, previously filled with saline containing 250 I.U./ml heparin. The tip of the cannula was pushed at least 2 cm inside the vessel toward the heart. The cannula was then firmly tied and passed beneath the skin to emerge from a small incision in the back of the neck. During the post-operative period and before the start of each recording session, the cannula was flushed through daily with saline containing heparin (250 I.U./ml). The experiments were performed two days after surgery. Drugs were administered by gastric gavage.

male mice = assay: Acute toxicity (LD50) in mice; format: in vivo, mouse; settings: oral, observed for seven days, 10080 min
Text: as §1, §2

SMILES | LD50 at 168 h [1] [mg/kg] | Change in BP, 1 hr after dose, first day ([2]; 2 mg/kg os) [mm Hg] | Change in HR, 1 hr after dose, first day ([2]; 2 mg/kg os) | Change in HR, 5 hr after dose, first day ([2]; 2 mg/kg os) | Change in BP, 5 hrs after dose, first day ([2]; 2 mg/kg os) [mm Hg] | Change in BP, 1 hr after dose, fourth day ([2]; 2 mg/kg os) [mm Hg] | Change in HR, 1 hr after dose, fourth day ([2]; 2 mg/kg os) | Change in HR, 5 hr after dose, fourth day ([2]; 2 mg/kg os) | Change in BP, 5 hrs after dose, fourth day ([2]; 2 mg/kg os) [mm Hg] | Change in BP, 1 hr after dose, first day ([2]; 5 mg/kg os) [mm Hg] | Change in HR, 1 hr after dose, first day ([2]; 5 mg/kg os) | Change in HR, 5 hr after dose, first day ([2]; 5 mg/kg os) | Change in BP, 5 hrs after dose, first day ([2]; 5 mg/kg os) [mm Hg] | Change in BP, 1 hr after dose, fourth day ([2]; 5 mg/kg os) [mm Hg] | Change in HR, 1 hr after dose, fourth day ([2]; 5 mg/kg os) | Change in HR, 5 hr after dose, fourth day ([2]; 5 mg/kg os) [b/min] | Change in BP, 5 hrs after dose, fourth day ([2]; 5 mg/kg os) [mm Hg] | Change in Blood Pressure after Treatment, 30' (normotensive rats) [mm Hg] | Change in heart rate after treatment, 30' (normotensive rats) [b/min] | Change in Blood Pressure after Treatment, 60' (normotensive rats) [mm Hg] | also measured
CN1C[C@H](CC(C#N)C(=O)NCc2ccccc2)C[C@@H]2c3cccc4[nH]cc(c34)C[C@H]21 (stereo partly drawn) [Example 1131, 2-Cyano-3-(6'-methylergoline-8'β)-N-benzylpropionamide] | > 1000 | -26 | -20 b/min | +5 b/min | -9 | -22 | -55 b/min | +5 b/min | -25 | -48 | -18 b/min | +10 b/min | -43 | -17 | +18 b/min | -8 | -16 | -22 | -20 | -22 | Change in heart rate after treatment, 60' (normotensive rats): -30 b/min; Change in Blood Pressure after Treatment, 120' (normotensive rats): -23 mm Hg; Change in heart rate after treatment, 120' (normotensive rats): -20 b/min; Change in Blood Pressure after Treatment, 180' (normotensive rats): -20 mm Hg; Change in heart rate after treatment, 180' (normotensive rats): -20 b/min; Change in Blood Pressure after Treatment, 240' (normotensive rats): -19 mm Hg; Change in heart rate after treatment, 240' (normotensive rats): -10 b/min; Change in Blood Pressure after Treatment, 360' (normotensive rats): -10 mm Hg; Change in heart rate after treatment, 360' (normotensive rats): +10 b/min; Change in Blood Pressure after Treatment, 24h (normotensive rats): 0 mm Hg; Change in heart rate after treatment, 24h (normotensive rats): +10 b/min
C[C@](N)(Cc1ccc(O)c(O)c1)C(=O)O [α-methyl-DOPA, reference compound] |  |  |  |  |  |  |  |  |  |  |  |  |  |  |  |  |  |  |  |  | LD50 (male mice): 5300 mg/kg per os; Change in HR, 1 hr after dose, first day ([2]; 30 mg/kg os): +40 b/min; Change in HR, 5 hr after dose, first day ([2]; 30 mg/kg os): +15 b/min; Change in BP, 5 hrs after dose, first day ([2]; 30 mg/kg os): -12 mm Hg; Change in BP, 1 hr after dose, fourth day ([2]; 30 mg/kg os): -12 mm Hg; Change in HR, 1 hr after dose, fourth day ([2]; 30 mg/kg os): +57 b/min; Change in HR, 5 hr after dose, fourth day ([2]; 30 mg/kg os): -18 b/min; Change in BP, 5 hrs after dose, fourth day ([2]; 30 mg/kg os): -19 mm Hg; Change in BP, 1 hr after dose, first day ([2]; 100 mg/kg os): +5 mm Hg; Change in HR, 1 hr after dose, first day ([2]; 100 mg/kg os): +87 b/min; Change in BP, 5 hrs after dose, first day ([2]; 100 mg/kg os): -38 mm Hg; Change in BP, 1 hr after dose, fourth day ([2]; 100 mg/kg os): -41 mm Hg; Change in HR, 1 hr after dose, fourth day ([2]; 100 mg/kg os): +77 b/min; Change in HR, 5 hr after dose, fourth day ([2]; 100 mg/kg os): +37 b/min; Change in BP, 5 hrs after dose, fourth day ([2]; 100 mg/kg os): -53 mm Hg; variation of the heart rate (HR), in words ([2]; Table 2): greatly increases it
CN1C[C@H](CC(C#N)C(N)=O)C[C@@H]2c3cccc4[nH]c(Br)c(c34)C[C@H]21 (stereo partly drawn) [Example 1139, 2-Cyano-3-(2-bromo-6'-methylergoline-8'β)-propionamide] | 125 | -13 | +7 b/min | +12 b/min | -23 | -18 | +47 b/min | +35 b/min | -12 | -25 | +28 b/min | +13 b/min | -24 | -12 | -10 b/min | -12 | -13 | -5 | 0 | -12 | Change in heart rate after treatment, 60' (normotensive rats): +10 b/min; Change in Blood Pressure after Treatment, 120' (normotensive rats): -12 mm Hg; Change in heart rate after treatment, 120' (normotensive rats): +10 b/min; Change in Blood Pressure after Treatment, 180' (normotensive rats): -10 mm Hg; Change in heart rate after treatment, 180' (normotensive rats): -5 b/min; Change in Blood Pressure after Treatment, 240' (normotensive rats): -5 mm Hg; Change in heart rate after treatment, 240' (normotensive rats): 0 b/min; Change in Blood Pressure after Treatment, 360' (normotensive rats): 0 mm Hg; Change in heart rate after treatment, 360' (normotensive rats): +15 b/min; Change in Blood Pressure after Treatment, 24h (normotensive rats): +2 mm Hg; Change in heart rate after treatment, 24h (normotensive rats): 0 b/min
CCNC(=O)C(C#N)C[C@@H]1C[C@@H]2c3cccc4[nH]cc(c34)C[C@H]2N(C)C1 (stereo partly drawn) [Example 1138, 2-Cyano-3-(6'-methylergoline-8'β)-N-ethylpropionamide] | 500 | -23 | -25 b/min | -10 b/min | -14 | -30 | -47 b/min | -12 b/min | -15 | -25 | -8 b/min | +5 b/min | -9 | -26 | -20 b/min | -25 | -11 | -10 | -15 | -20 | Change in heart rate after treatment, 60' (normotensive rats): -30 b/min; Change in Blood Pressure after Treatment, 120' (normotensive rats): -15 mm Hg; Change in heart rate after treatment, 120' (normotensive rats): -30 b/min; Change in Blood Pressure after Treatment, 180' (normotensive rats): -10 mm Hg; Change in heart rate after treatment, 180' (normotensive rats): -15 b/min; Change in Blood Pressure after Treatment, 240' (normotensive rats): -10 mm Hg; Change in heart rate after treatment, 240' (normotensive rats): 0 b/min; Change in Blood Pressure after Treatment, 360' (normotensive rats): 0 mm Hg; Change in heart rate after treatment, 360' (normotensive rats): +5 b/min; Change in Blood Pressure after Treatment, 24h (normotensive rats): 0 mm Hg; Change in heart rate after treatment, 24h (normotensive rats): +10 b/min
